pIC50: −log10 of the molar value. Where “and” joins values, the source holds several entries; their conditions need not be identical. Equal entries are not always repeated.
Key:
[1] = (§1) DNDI: Cytotoxicity against human MRC-5 lung fibroblast cells.; settings: IC50
[2] = test system: Trypanosoma brucei brucei; test: microbe, parasite or virus in culture; format: functional, organism-based, STIB 795
Description: DNDI: Inhibition of Human African Trypanosomiasis (HAT), STIB 795, in vitro

MRC5 = test: as §1
Trypanosoma cruzi = test: DNDI: Inhibition of Chagas Disease parasite Trypanosoma cruzi (Tulahuen LacZ, Clone C4), in vitro.; format: functional, organism-based
[3] = test system: Trypanosoma brucei rhodesiense; test: DNDI: Inhibition of Human African Trypanosomiasis (HAT), STIB 900, in vitro; format: functional, organism-based
[4] = DNDI: Cytotoxicity against L-6 rat myoblasts from skeletal muscle.; format: toxicity, cell-based, Muscle tissue, L6; settings: L-6 rat skeletal muscle myoblast cells
Plasmodium falciparum = test: DNDI: Inhibition of the malaria parasite Plasmodium falciparum, in vitro; format: functional, organism-based; settings: K1
Leishmania donovani = test: DNDI: Inhibition of formation of Leishmania donovani (strain MHOM/ET/67/L82) axenic amastigotes, in vitro.; format: functional, organism-based

| SMILES | pIC50 [1] | pIC50 ([2]; Trypanosoma brucei, STIB 795) | also measured |
| --- | --- | --- | --- |
| O=C(NCCc1csc(-c2ccc(F)cc2)n1)c1ccc(Br)o1 | < 4.38 | 5.33 | – |
| CCOC(=O)CNC(=O)C(Cc1ccccc1)NS(=O)(=O)c1cccs1 (stereo unspecified) | < 4.38 | 5.26 | – |
| CC(C)(C)OC(=O)N1CCC[C@H]1c1nnc(SCc2cccc(Cl)c2)o1 | 5.54 | 6.27 | – |
| Cc1ccc2[nH]c3c(c2c1)CCCC3CN (stereo unspecified) | < 4.98 | 5.91 | pIC50 (MRC5): < 4.68; pIC50 [2]: 6.18 |
| COc1ccc(C(NC(=O)CC(C)C)c2ccc3cccnc3c2O)cc1OC (stereo unspecified) | 6.16 | 6.22 | – |
| CCN1/C(=C/C(=C/c2sc3ccccc3[n+]2CC)OC)Sc2ccccc21 | 5.65 | 6.28 | – |
| O=S(=O)(Nc1ccc(O)c(-c2c(O)ccc3ccccc23)c1)c1cccs1 | < 4.38 | 5.30 | – |
| CN1CCN(c2nc(Nc3ccc(F)cc3)nc(Nc3ccc(F)cc3)n2)CC1 | < 4.38 | 5.29 | – |
| Cc1ccc(-c2cnc3ccccc3[n+]2C)c(C)c1 | < 4.68 | – | pIC50 (MRC5): < 4.98; pIC50 [2]: 6.13 and 5.48 |
| Cc1cc(=O)[nH]c(-n2nc(C)cc2NC(=O)C2CCCC2)n1 | < 4.98 | 6.36 | pIC50 (Trypanosoma cruzi): 5.35; pIC50 [3]: 5.85; pIC50 [4]: 6.58; pIC50 (Plasmodium falciparum): 5.62; pIC50 (Leishmania donovani): 6.84 |
| CC(C)(C)C(=O)NCCc1csc(-c2cccc(F)c2)n1 | < 4.38 | 6.36 | pIC50 (Trypanosoma cruzi): 6.15; pIC50 [3]: 6.35; pIC50 [4]: 4.72; pIC50 (Plasmodium falciparum): 4.97; pIC50 (Leishmania donovani): 4.85 |
| O=C(CCc1ccccc1)N/N=C/c1ccc(O)c2ncccc12 | < 4.98 | 6.32 | pIC50 (MRC5): < 4.68; pIC50 [2]: 6.34 |
| O=C(NCCc1n[nH]c(-c2ccc(F)cc2)n1)c1cccc(F)c1 | < 4.38 | 5.71 | pIC50 (Trypanosoma cruzi): 5.20; pIC50 [3]: 5.65; pIC50 [4]: 4.41; pIC50 (Plasmodium falciparum): 5.11; pIC50 (Leishmania donovani): 4.81 |
| COc1ccc2[nH]c(C)c(CCNCCC3=C(C)CCCC3(C)C)c2c1 | 5.23 | 5.88 | pIC50 (MRC5): 5.31; pIC50 [2]: 5.75 |
| CC1=NN(c2cccc(Cl)c2)C(=O)/C1=C\NNC(=O)c1ccccc1 | < 5.38 | 5.83 | pIC50 (MRC5): 5.34; pIC50 [2]: 5.72 |
| COc1ccc(C(NC(=O)C(C)C)c2ccc3cccnc3c2O)cc1OC (stereo unspecified) | 5.64 | – | pIC50 (MRC5): < 5.38; pIC50 [2]: 5.56 and 5.97 |
| CCc1ccccc1/N=C(\NCCN1CCOCC1)NC(=O)c1ccccc1 | < 4.38 | 6.17 | pIC50 (Trypanosoma cruzi): 4.51; pIC50 [3]: 6.48; pIC50 [4]: 4.30; pIC50 (Plasmodium falciparum): 5.69; pIC50 (Leishmania donovani): 4.08 |
| O=C(CC(Sc1cccc2cccnc12)c1ccc(F)cc1)c1cccs1 (stereo unspecified) | < 4.68 | 6.29 | – |
| COc1ccc(C2=NC3(CCN(C(C)C)CC3)NC(c3ccccc3O)C2)cc1 (stereo unspecified) | < 4.68 | 5.86 | – |
| CCN1/C(=C/C=C/c2sc3c(C)cccc3[n+]2CC)Sc2c(C)cccc21 | < 4.68 | 6.30 | – |
| O=C(Nc1ccc(Cl)cc1)O/N=C(/c1ccc(Cl)cc1)N1CCOCC1 | < 4.38 | 5.37 | – |
| CCCn1c(=N)n(CC(O)COc2ccc(Cl)cc2Cl)c2ccccc21 (stereo unspecified) | 5.06 | 5.71 | – |
| Cc1ccc([N+]2=C3SCCCN3C(O)(c3ccc(Cl)cc3Cl)C2)cc1 (stereo unspecified) | < 5.38 | 5.28 | – |
| CC1CCN(C(c2cc(C(C)(C)C)c(O)c(C(C)(C)C)c2)c2ccccn2)CC1 (stereo unspecified) | < 4.38 | 5.24 | – |
| Oc1c(C(Nc2ccccn2)c2ccc(C(F)(F)F)cc2)ccc2cccnc12 (stereo unspecified) | < 4.38 | 5.49 | – |
| CCc1cccc(-n2nnnc2N2CCN(C(=O)Nc3ccc(F)cc3)CC2)c1 | < 4.38 | 5.38 | – |

| SMILES | pIC50 [1] | pIC50 ([2]; Trypanosoma brucei, STIB 795) | also measured |
| --- | --- | --- | --- |
| CCc1cc(Sc2ccccc2NC(=O)C2CCCCC2)n2nc(C)nc2n1 | < 4.38 | 5.28 | – |
| CC(C)(C)c1cc(C(c2ccccc2O)N2CCCCC2)cc(C(C)(C)C)c1O (stereo unspecified) | < 4.38 | 5.47 | pIC50 [2]: 5.35 |
| Cc1cccc(C)c1C(OCC1CN(C(C)C)C(C)(C)O1)c1c(C)cccc1C (stereo unspecified) | < 4.68 | 5.31 | – |
| C/C(=N\NC(=O)c1cccc(I)c1)c1ccc(O)cc1O | 5.43 | 5.72 | – |
| CCCCNCc1cc(Br)c(OCc2ccc(F)cc2)c(OC)c1 | < 4.38 | 5.40 | – |
| C=CCc1cccc(/C=N/NC(=O)c2cc(-c3ccc4ccccc4c3)n[nH]2)c1O | < 4.38 | 5.52 | – |
| CC(C)=C1C2CCC1C1C(=O)N(NC(=O)C(C)Oc3ccc(C)c(C)c3)C(=O)C21 (stereo unspecified) | < 4.38 | 5.27 | – |
| COc1ccc(-n2nc(N3CCCC(C(=O)NC4CCCC4)C3)ccc2=O)cc1 (stereo unspecified) | < 4.38 | 5.64 | – |
| CCCc1cc(=O)[nH]c(-n2nc(C)cc2NC(=O)c2ccc(OC)c(OC)c2)n1 | < 4.38 | 5.28 | – |
| COCC(=O)N/N=C/c1ccc(SCC(=O)Nc2ccc3ccccc3c2)o1 | < 4.38 | 5.16 | – |
| CCOC(=O)c1ccc(NC(=O)C2CCCN(C(=O)c3ccccc3F)C2)cc1 (stereo unspecified) | < 4.68 | 4.25 | – |
| COC(=O)c1c(SCC(=O)Nc2cccc(OC)c2)[nH]c2ccccc2c1=O | < 4.68 | 5.34 | – |
| CCS(=O)(=O)N1CCCc2ccc(NS(=O)(=O)c3ccccc3F)cc21 | < 4.38 | 5.89 | pIC50 (Trypanosoma cruzi): 5.23; pIC50 [3]: 5.24; pIC50 [4]: 5.06; pIC50 (Plasmodium falciparum): 5.30; pIC50 (Leishmania donovani): 5.58 |
| CCn1c(SCC(=O)N/N=C(\C)c2ccc(O)c(OC)c2)nc2ccccc21 | < 4.38 | 5.30 | – |
| CCN(CC)c1ccc(C(Nc2ccccn2)c2ccc3cccnc3c2O)cc1 (stereo unspecified) | < 4.68 | 5.06 | – |
| Cc1ccsc1/C=C(\C(=O)NCc1cccnc1)S(=O)(=O)c1ccccc1 | < 4.68 | 5.28 | – |
| COc1cc(-n2nnn(C3CC(=O)C4OCC3O4)c2=S)c(OC)cc1Cl (stereo unspecified) | < 4.68 | – | pIC50 [2]: < 4.98 and 5.32 |
| N=C(N)N/N=C(/C=C(\c1ccc(Cl)cc1)n1ccnc1)c1ccc(Cl)cc1 | < 4.98 | 5.52 | – |
| CCC(=O)N(CC(CC(C)C)N1CCN(C)CC1)c1ccc(C2CCCC2)cc1 (stereo unspecified) | < 4.38 | 5.32 | – |
| N=c1n(CCOc2ccccc2)c2ccccc2n1CCN1CCCCC1 | < 4.68 | – | pIC50 [2]: 5.53 and < 4.98 |
| O=C(NC(c1ccc2c(c1)OCO2)c1ccc2cccnc2c1O)c1ccccc1 (stereo unspecified) | < 5.38 | 5.31 | – |
| COCc1cc(CN2CCN(c3ccccc3OC)CC2)c(O)c2ncccc12 | 5.80 | 5.64 | – |
| CNC1=C(N(C(C)=O)c2ccc(Br)cc2)C(=O)c2ccccc2C1=O | 5.31 | 6.29 | – |
| Cn1c(=N)n(CC(=O)c2cc(C(C)(C)C)c(O)c(C(C)(C)C)c2)c2ccccc21 | < 4.68 | 5.34 | pIC50 [2]: 5.58 |
| CN(C)c1ccc2nc3ccc(=[N+](C)C)cc-3sc2c1 [METHYLENE BLUE CATION] | < 5.68 | > 7.70 | – |
| Cc1ccc2ccc3ccc(C)nc3c2n1 [NEOCUPROINE] | < 4.68 | 6.25 | – |

— ChEMBL document CHEMBL2094269, “WEHI/Eskitis Trypanosoma b. brucei screening data”
